Data as given in US20060134144A1, “Mucoadhesive composition and formulation for solubilization of insoluble drugs and preparation method thereof” (priority 2002, published 2006).

Assay: Dispersion behaviour on mixing with water
Format: physicochemical
Details: mixed with water
Description: The size of the emulsion particles were measured by using Malvern Zetasizer (Malvern Instruments Limited, England) after preparing the emulsion by adding 3 mL of distilled water to 2 μL of thus obtained liquid formulation. An average particle size and polydispersity were obtained by measuring values for a given formulation three times (Orr, Encyclopedia of emulsion technology, 1, 369-404, 1985). The polydispersity was obtained as the variance indicated by the logarithmic scale in the logarithmic normal distribution function. The above method in measuring the particle size and the polydispersity was used throughout the following examples.
The above composition exists as semi-solid or solid at room temperature and in a refrigerator, respectively, but as liquid at or above 40° C. Dispersion with the average particle size of 530 nm was obtained when the above composition was vortexed for 10 s in water. The absorbance at 400 nm was 2.36.
Monoolein (99.5% purity) from Nu-Chek Prep (Elysian, Minn., USA) or Myverol 18-99K (monoolein content 86.6 weight %) from Danisco A/S (Copenhagen, Denmark) were mixed with water. […] Since the cubic phase had very high viscosity and floated in water, the particle size or absorbance could not be determined.

In the case of `CCCCCCCC/C=C\CCCCCCCC(=O)OCC(O)CO` (stereo not shown) [Monoolein (99.5% purity), Monoolein], the “dispersion behaviour in water” value is reported as “Cubic phases were formed instead of dispersion”.
